Assay results taken from patent publication EP2787958B1, “CHELIDONIUM MAJUS EXTRACTS AND THEIR USE IN THE TREATMENT OF SKIN DISORDERS AND PROMOTION OF SKIN REGENERATION” (priority 2011, dated 2013).
Like-named read-outs stand apart in the source and are kept apart here.

Tests used:
[1] = tested on: interleukin 1β (IL-1β); test: Inflammatory cytokines in cell supernatant (Mosaic ELISA microarray): IL-1β; assay type: cell-based, Human; conditions: for IL-1β ng/(ml* No. of cells from photo) ± SD: 24 hours; for IL-1β production (effect in words): 1-10 µM
Protocol: (§1) The inflammatory cytokines, CD40 ligand (CD40L), interferon γ (INF-γ), interleukin 1α (IL-1α), interleukin 1β (IL-1β), interleukin 6 (IL-6), interleukin 8 (IL-8), interleukin 17 (IL-17) and tumour necrosis factor α (TNF-α) were determined qualitatively and quantitatively. Each measurement was performed in duplicate using a Mosaic™ ELISA protein microarray assay system from R&D System in accordance with the supplier's instructions. Furthermore, with the aim of obtaining a correlation model between light signal intensity and cytokine concentration, a calibration curve using 6 concentrations was performed for each of them. Analysis of the data was performed using the dedicated Q-View™ Imager software package from Quansys Biosciences

[2] = tested on: interleukin 6 (IL-6); test: Inflammatory cytokines in cell supernatant (Mosaic ELISA microarray): IL-6; assay type: cell-based, Human; conditions: for IL-6 ng/(ml* No. of cells from photo) ± SD: 24 hours; for IL-6 production (effect in words): 1-10 µM
Protocol: as §1

[3] = Anti-radical activity (decay of the DPPH radical); assay type: biochemical; conditions: for Anti-radical (skin protective): 24 hours
Protocol: With regard to assays aimed at evaluating anti-radical activity, a chemical test was used where the decay of the diphenylpicrylhydrazyl (DPPH) radical is assessed in the absence or in the presence of the test substances. Indeed, the DPPH radical is used to test the ability of substances to act as free radical scavengers. DPPH in solution has a purple colour with a maximum absorbance peak at 517 nm which changes to yellow-colourless when this radical extracts a hydrogen atom from a radical scavenger to give rise to the reduced form DPPH-H. The assay has been conducted in quadruplicate in 96 well microplates (SARSTEDT Tissue Culture Plate 96-well flat bottom cell+). 50 µl of an ethanol solution of the test substance at 2X concentration and then 50 µl of a 200 µM solution of DPPH (MW 168,18, Aldrich 2,2-di(4-tert-octylphenyl)-1-picrylhydrazyl, free radical Lot# MKBF7574V Cat N° 257621-100 mg) have been added to each well of the microplate. A positive control consisting of 0.1 mM vitamin C and a negative control consisting of ethanol alone were included in each microplate. After 30 minutes from the addition of DPPH, photographs of the plates were taken (Canon PowerShot A610 5.0 Mpixels) and read spectrophotometrically at 530 nm.
Based on the analysis of the results reported in Table 9, some substances were selected for further characterisation of their anti-radical activity. For the selected substances, dose-activity curves were obtained and the IC50 value were computed using a non-linear regression model with the Hill equation at variable slope. Such substances had been selected due to both their anti-radical potential and the easiness of their isolation/production. The selection of substances was made in view of cosmetics applications. Moreover their activity on human dermal fibroblasts (HDF) is expected to be useful also for the development of dermatological medications. The selected substances are discussed below.

[4] = tested on: HDF cells; test: Summary of uses and toxic effects deduced from the cell assays (Table 1); assay type: cell-based, Human
Protocol: Antiradical (skin protective): this is deduced from the free radical scavenger effects.
Revitalizing: this is deduced from the increased mitochondrial dehydrogenase effect.
Cytoprotective, with regard to oxidative damage (antioxidant, anti-inflammatory and anti-ageing): this is deduced from antagonising the stimulation of IL-1β and/or IL-6 induced by 100 µM H2O2 and from the absence of changes in cell morphology similar to the ones due to cell senescence.
Wound healing: this is deduced from the effect of inhibiting the production of IL-1β and by the effect of stimulating cell proliferation under standard growth conditions.
Cytotoxicity: this is deduced from the effect of reducing mitochondrial dehydrogenase activity or from the presence of morphologies characteristic of cell senescence.
Irritation: this is deduced from the effect of increased production of IL-6 and/or IL-1β under standard growth conditions.
Said uses in the fields of medicine and cosmetics or the toxic effects of the substances of the invention at a given dosage, for 24 hours, are summarized in Table 1 below.

[5] = tested on: collagen produced by HDF cells; test: Quantity of collagen produced by the cells (elution of Sirius Red)
[6] = tested on: Human dermal fibroblasts (HDF); test: Mitochondrial dehydrogenase activity (WST-1 formazan assay) in HDF cells; conditions: for Revitalizing agent: 24 hours; for activity at 1 µM / activity at 7.3 µM: Homo sapiens, Fibroblast, read-out: % mitochondrial dehydrogenase activity ± SD
[7] = tested on: HDF cells; test: Evaluation of cell proliferation (counting of Sirius Red stained cells in photographs); conditions: 24 hours
[8] = Dose 1 µm (coptisine: 1 pm [sic])
[9] = Dose 1 µm (coptisine: 1 pm [sic]), 24 hours

Structure (SMILES): COc1ccc2c(c1OC)CN1CCc3cc4c(cc3C1=C2)OCO4 [dihydroberberine]
- IL-1β ng/(ml* No. of cells from photo) ± SD ([1]; 1 µM, 34 ng/ml TGF-β1): 99±10 ng/(ml* No. of cells from photo)
- IL-1β ng/(ml* No. of cells from photo) ± SD ([1]; 1 µM, 100 µM H2O2): 164±1 ng/(ml* No. of cells from photo)
- IL-1β ng/(ml* No. of cells from photo) ± SD ([1]; 1 µM, Standard conditions): 108±1 ng/(ml* No. of cells from photo)
- IL-1β ng/(ml* No. of cells from photo) ± SD ([1]; 7.3 µM, 34 ng/ml TGF-β1): 129±1 ng/(ml* No. of cells from photo)
- IL-1β ng/(ml* No. of cells from photo) ± SD ([1]; 7.3 µM, 100 µM H2O2): 212±18 ng/(ml* No. of cells from photo)
- IL-1β ng/(ml* No. of cells from photo) ± SD ([1]; 7.3 µM, Standard conditions): 125±2 ng/(ml* No. of cells from photo)
- IL-1β production (effect in words) ([1]; 34 ng/ml TGF-β1): antagonizes the stimulation of IL-1β induced by 34 ng/ml TGF-β1
- IL-1β production (effect in words) ([1]; 100 µM H2O2): tendency to increase IL-1β production in a dose-dependent manner
- IL-1β production (effect in words) ([1]; standard conditions): tendency to increase IL-1β production in a dose-dependent manner
- IL-6 ng/(ml* No. of cells from photo) ± SD ([2]; 1 µM, 34 ng/ml TGF-β1): 512±25 ng/(ml* No. of cells from photo)
- IL-6 ng/(ml* No. of cells from photo) ± SD ([2]; 1 µM, 100 µM H2O2): 1328±2 ng/(ml* No. of cells from photo)
- IL-6 ng/(ml* No. of cells from photo) ± SD ([2]; 1 µM, Standard conditions): 541±24 ng/(ml* No. of cells from photo)
- IL-6 ng/(ml* No. of cells from photo) ± SD ([2]; 7.3 µM, 34 ng/ml TGF-β1): 704±60 ng/(ml* No. of cells from photo)
- IL-6 ng/(ml* No. of cells from photo) ± SD ([2]; 7.3 µM, 100 µM H2O2): 1685±444 ng/(ml* No. of cells from photo)
- IL-6 ng/(ml* No. of cells from photo) ± SD ([2]; 7.3 µM, Standard conditions): 534±39 ng/(ml* No. of cells from photo)
- IL-6 production (effect in words) ([2]; 34 ng/ml TGF-β1): tendency to antagonise the stimulation of IL-6 induced by TGF-β1
- IL-6 production (effect in words) ([2]; 100 µM H2O2): significant effects in modulating IL-6 production
- IL-6 production (effect in words) ([2]; standard conditions): significant effects in modulating IL-6 production
- anti-radical effects (in words) ([3]; 1 mM): shows anti-radical effects
- % DPPH activity ([3]; 1 mM, 30 minutes): 55%
- Anti-radical (skin protective) [3, 8]: Yes
- Anti-radical (skin protective) ([3]; Dose 7.3 µm): Yes
- IC50 ([3]; anti-radical activity, Hill equation): 62 µM
- Cytotoxic [4]: No
- Anti-fibrotic (prevention of scar formation, also from acne) [4, 9]: Yes (↓collagen)
- Cytoprotective (antioxidant, anti-inflammatory and anti-ageing; useful also in the treatment of acne) [4, 9]: No
- Wound-healing [4, 9]: No
- Anti-fibrotic (prevention of scar formation, also from acne) ([4]; Dose 7.3 µm, 24 hours): Yes (↓collagen)
- Cytoprotective (antioxidant, anti-inflammatory and anti-ageing; useful also in the treatment of acne) ([4]; Dose 7.3 µm, 24 hours): No
- Cytotoxic ([4]; Dose 7.3 µm, 24 hours): No
- Irritant ([4]; Dose 7.3 µm, 24 hours): Yes (↑IL-6, ↑IL-1β)
- Wound-healing ([4]; Dose 7.3 µm, 24 hours): No
- concentrations at which toxic (irritant) effects are shown ([4]; exposure for 24 hours): greater than or equal to 1 µM
- Irritant ([4]; human, 24 h, 1 µm): Yes (↑IL-6, ↑IL-1β)
- collagen production (effect in words) ([5]; 1-10 µM (1 µM and 10 µM), 34 ng/ml TGF-β1): antagonizes the stimulation of collagen induced by 34 ng/ml TGF-β1
- collagen production (effect in words) ([5]; 1-10 µM (1 µM and 10 µM), 100 µM H2O2): stimulates collagen production in a dose-dependent manner
- collagen production (effect in words) ([5]; 1-10 µM, standard conditions): stimulates collagen production in a dose-dependent manner
- concentrations below which no significant effects on mitochondrial dehydrogenase activity are shown [6]: below 0.1 µM
- mitochondrial dehydrogenase activity (effect in words) ([6]; 100 µM): reduced
- mitochondrial dehydrogenase activity (effect in words) ([6]; 1 and 10 µM, 18 h and 42 h, more marked at 42 h): increased with respect to the control
- Revitalizing agent [6, 8]: Yes
- Revitalizing agent ([6]; Dose 7.3 µm): Yes
- activity at 1 µM ([6]; 18 h): 131 ± 5.4%
- activity at 7.3 µM ([6]; 18 h): 128 ± 13.8%
- activity at 1 µM ([6]; 42 h): 143 ± 14.1%
- activity at 7.3 µM ([6]; 42 h): 137 ± 17.6%
- activity at 1 µM ([6]; 46 h): 121 ± 19.6%
- activity at 7.3 µM ([6]; 46 h): 192 ± 24.4%
- mitochondrial dehydrogenase activity (effect in words) ([6]; fibroblast cells, higher doses): inhibit mitochondrial dehydrogenase activity
- mitochondrial dehydrogenase activity (effect in words) ([6]; fibroblast cells, low dosage): stimulate mitochondrial dehydrogenase activity
- No. of cells from photo ± SD ([7]; 1 µM, 34 ng/ml TGF-β1): 232±13
- No. of cells from photo ± SD ([7]; 1 µM, 100 µM H2O2): 146±26
- No. of cells from photo ± SD ([7]; 1 µM, Standard conditions): 160±18
- No. of cells from photo ± SD ([7]; 7.3 µM, 34 ng/ml TGF-β1): 193±27
- No. of cells from photo ± SD ([7]; 7.3 µM, 100 µM H2O2): 108±3
- No. of cells from photo ± SD ([7]; 7.3 µM, Standard conditions): 129±13
